Source: patent US8450372B2, “Formulations of suberoylanilide hydroxamic acid and methods for producing same” (Merck Sharp & Dohme Corp., priority 2005, dated 2013)
Like-named read-outs stand apart in the source and are kept apart here. Marks after values point to notes of the source that are not given here. Each block holds one molecule with its values, some of them ahead of it.

Experiments:
[1] = Phase I study: safety and tolerability of oral vorinostat 400 mg q.d.; type: in vivo, human; conditions: short-term administration, patients with advanced cancer
Procedure: (§1) This Phase I study conducted in advanced stage cancer patients assessed safety and tolerability of oral vorinostat administered 400 mg q.d., single- and multiple-dose serum pharmacokinetics (PK) of vorinostat, and the effect of a standard high-fat meal on single-dose vorinostat PK. Patients received a single-dose of 400 mg vorinostat on Day 1 (fasted) and Day 5 (after a standard high-fat meal) with 48 hours of postdose PK sampling on both days. Patients then received 400 mg vorinostat once a day on Days 7 through 28 (22 days of dosing). On Day 28, vorinostat was administered after a standard high-fat meal with PK sampling for 24 hrs postdose. Of 23 patients enrolled, 23 were evaluable for Day 1 PK, 20 for Day 5 PK, and 14 for Day 28 PK. The apparent t1/2 of vorinostat was short.

[2] = Solubility of SAHA raw material (physical and chemical properties of raw materials); type: physicochemical; conditions: water
Source text: Table 10 summarizes the physical properties of the raw materials in the capsule.

[3] = Phase I study: single- and multiple-dose serum pharmacokinetics of oral vorinostat 400 mg, fasted and after high-fat meal; type: in vivo, human; conditions: for fe (fraction of dose excreted unchanged in urine): arithmetic mean; for Tmax: median; for AUC(0-t): read-out: AUC0-24 hr
Procedure: as §1
Table 22: PK Parameters of Vorinostat Following Single and Multiple Doses of Vorinostat 400 mg Daily

[4] = Dissolution rate of about 100 mg SAHA API before encapsulation (USP Dissolution Apparatus II, 900 mL 2.0% Tween, 37±0.5° C., 100 rpm, HPLC); type: physicochemical; conditions: for Average SAHA % Dissolved at Time, minutes 0: 0 minutes; for Average SAHA % Dissolved at Time, minutes 10: 10 minutes; for Average SAHA % Dissolved at Time, minutes 15: 15 minutes; for Average SAHA % Dissolved at Time, minutes 20: 20 minutes; for Average SAHA % Dissolved at Time, minutes 30: 30 minutes; for Average SAHA % Dissolved at Time, minutes 45: 45 minutes; for Average SAHA % Dissolved at Time, minutes 60: 60 minutes
Procedure: Dissolution rates or profiles in vitro of “about 100 mg of the active ingredient of the pharmaceutical composition” is measured according to the steps and conditions in Example 15. In one embodiment, it is measured by using a USP Dissolution Apparatus II with a helical sinker (Quality Lab Accessories L.L.C., Manville, N.J.) in 900 mL of 2.0% Tween (TCI America, Portland, Oreg.) at a temperature of 37±0.5° C., and paddles rotated at 100 rpm.
The dissolution rate of 100 mg of SAHA API before encapsulation was evaluated using a USP Dissolution Apparatus II (VK 7000, Varian Inc., Cary, N.C.). About 100 mg of SAHA was delivered to vessels containing 900 mL of 2.0% Tween (TCI America, Portland, Oreg.) at a temperature of 37±0.5° C. The paddles were rotated at 100 rpm and samples were pulled at specified time intervals via an autosampler (VK 8000, Varian Inc., Cary, N.C.) equipped with 35 μm full flow filters (Varian Inc., Cary, N.C.).
Subsequently, samples were assayed for SAHA by High Performance Liquid Chromatography (Agilent 1100 series, Agilent Technologies Inc., Wilmington, Del.). The chromatographic analysis was conducted using a Phenomenex Luna C8 (2) (100×4.6 mm) 5 μm particle size column, a mobile phase of 1:1 methanol/0.1% trifluroacetic acid (Reagent Grade, Fisher), and a detection wavelength of 242 nm.

[5] = 400 mg single oral dose, high-fat meal vs fasted
[6] = single dose fed/single dose fasted, 400 mg

- solubility [2]: < 0.1 mg/mL
- Accumulation ratio: AUC0-24 hr multiple dose fed/AUC0-24 hr single dose fed (GMR) ([3]; 400 mg daily): 1.21
- Linearity ratio: AUC0-24 hr multiple dose fed/AUC0-∞ single dose fed (GMR) ([3]; 400 mg daily): 1.23
- fe (fraction of dose excreted unchanged in urine) ([3]; 400 mg oral, multiple doses (once daily for 22 days), fed, n = 12): 0.0037
- t1/2 ([3]; 400 mg oral, multiple doses (once daily for 22 days), fed, harmonic mean): 1.34 h
- Cmax ([3]; 400 mg oral, multiple doses (once daily for 22 days), fed, serum, geometric mean): 1.13 µM
- fe (fraction of dose excreted unchanged in urine) ([3]; 400 mg oral, single dose, fasted, n = 22): 0.0021
- Tmax ([3]; 400 mg oral, single dose, fasted): 1.50 h
- AUC0-∞ ([3]; 400 mg oral, single dose, fed (high-fat meal), serum, geometric mean): 5.33 µM·h
- fe (fraction of dose excreted unchanged in urine) ([3]; 400 mg oral, single dose, fed, n = 21): 0.0030
- AUC0-24 hr ([3]; 400 mg oral, single dose, fed, serum, geometric mean): 5.33 µM·h
- extent of absorption, effect of high-fat meal [3, 5]: small increase
- rate of absorption, effect of high-fat meal [3, 5]: modest decrease
- apparent t1/2 ([3]; advanced cancer patients, 400 mg oral, serum): short
- Tmax, effect of high-fat meal ([3]; fed state, 400 mg oral): delayed
- lag time before detectable levels in serum ([3]; fed state, most subjects, 400 mg oral): at least 15 minutes
- Tmax ([3]; human, serum, po, 400 mg, 400 mg oral, multiple doses (once daily for 22 days), fed, read-out: Tmax): 4.21 h
- AUC(0-t) ([3]; human, serum, po, 400 mg, 400 mg oral, multiple doses (once daily for 22 days), fed, serum, geometric mean): 6.46 µM·h
- Cmax ([3]; human, serum, po, 400 mg, 400 mg oral, single dose, fasted, geometric mean): 1.12 µM
- half-life ([3]; human, serum, po, 400 mg, 400 mg oral, single dose, fasted, harmonic mean): 1.74 h
- AUC(0-t) ([3]; human, serum, po, 400 mg, 400 mg oral, single dose, fasted, serum, geometric mean): 3.82 µM·h
- Cmax ([3]; human, serum, po, 400 mg, 400 mg oral, single dose, fed, geometric mean): 1.02 µM
- half-life ([3]; human, serum, po, 400 mg, 400 mg oral, single dose, fed, harmonic mean): 1.44 h
- Tmax ([3]; human, serum, po, 400 mg, 400 mg oral, single dose, fed, read-out: Tmax): 4 h
- AUC(0-inf) ([3]; human, 400 mg oral, single dose, fasted, serum, geometric mean): 3.87 µM·h
- AUC0-∞ GMR (geometric mean ratio) [3, 6]: 1.38^§
- Cmax GMR (geometric mean ratio) [3, 6]: 0.91^§
Structure (SMILES): O=C(CCCCCCC(=O)Nc1ccccc1)NO [vorinostat, N-hydroxy-N′-phenyloctanediamide]
- tolerability [1]: generally well tolerated
- Trough concentrations ([3]; multiple-dose administration, 400 mg once a day, serum): generally below the limit of quantification

- Average SAHA % Dissolved at Time, minutes 0 [4]: 0.0%
- Average SAHA % Dissolved at Time, minutes 10 [4]: 26.8%
- Average SAHA % Dissolved at Time, minutes 15 [4]: 34.8%
- Average SAHA % Dissolved at Time, minutes 20 [4]: 41.5%
- Average SAHA % Dissolved at Time, minutes 30 [4]: 51.3%
- Average SAHA % Dissolved at Time, minutes 45 [4]: 61.8%
- Average SAHA % Dissolved at Time, minutes 60 [4]: 69.8%
Structure (SMILES): O=C(CCCCCCC(=O)Nc1ccccc1)NO [1008D, suberoylanilide hydroxamic acid]

- Average SAHA % Dissolved at Time, minutes 0 [4]: 0.0%
- Average SAHA % Dissolved at Time, minutes 10 [4]: 37.8%
- Average SAHA % Dissolved at Time, minutes 15 [4]: 46.1%
- Average SAHA % Dissolved at Time, minutes 20 [4]: 52.1%
- Average SAHA % Dissolved at Time, minutes 30 [4]: 61.9%
- Average SAHA % Dissolved at Time, minutes 45 [4]: 71.8%
- Average SAHA % Dissolved at Time, minutes 60 [4]: 79.3%
Structure (SMILES): O=C(CCCCCCC(=O)Nc1ccccc1)NO [1007D, suberoylanilide hydroxamic acid]

- Average SAHA % Dissolved at Time, minutes 0 [4]: 0.0%
- Average SAHA % Dissolved at Time, minutes 10 [4]: 31.1%
- Average SAHA % Dissolved at Time, minutes 15 [4]: 39.7%
- Average SAHA % Dissolved at Time, minutes 20 [4]: 47.1%
- Average SAHA % Dissolved at Time, minutes 30 [4]: 58.3%
- Average SAHA % Dissolved at Time, minutes 45 [4]: 70.1%
- Average SAHA % Dissolved at Time, minutes 60 [4]: 78.3%
Structure (SMILES): O=C(CCCCCCC(=O)Nc1ccccc1)NO [1376-C-RO-02, suberoylanilide hydroxamic acid]

- Average SAHA % Dissolved at Time, minutes 0 [4]: 0.0%
- Average SAHA % Dissolved at Time, minutes 10 [4]: 38.2%
- Average SAHA % Dissolved at Time, minutes 15 [4]: 48.9%
- Average SAHA % Dissolved at Time, minutes 20 [4]: 57.3%
- Average SAHA % Dissolved at Time, minutes 30 [4]: 69.3%
- Average SAHA % Dissolved at Time, minutes 45 [4]: 80.6%
- Average SAHA % Dissolved at Time, minutes 60 [4]: 87.7%
Structure (SMILES): O=C(CCCCCCC(=O)Nc1ccccc1)NO [1136-1136-00-001, suberoylanilide hydroxamic acid]
